According to PMC9820118, “Betulin Acid Ester Derivatives Inhibit Cancer Cell Growth by Inducing Apoptosis through Caspase Cascade Activation: A Comprehensive In Vitro and In Silico Study” (International Journal of Molecular Sciences, 2022):

System: MV4-11 cells
Assay: Antiproliferative activity, MTT assay, MV4-11 leukemia cells
Format: cell-based, human
Conditions: Homo sapiens, MV4-11, 72 h, 72 h incubation, MTT; read-out: Growth inhibition IC50, leukemia cell line MV4-11

Row | Compound | IC50 [µM]
1 | C=C(C)[C@@H]1CC[C@]2(COC(=O)CCC(=O)N3CCOCC3)CC[C@]3(C)C(CCC4[C@@]5(C)CC[C@H](O)C(C)(C)C5CC[C@]43C)C12 (some centres unmarked) [2b] | 3.94

Same assay, conditions: IC50 BALB/3T3 / IC50 MV4-11

Row | Compound | Calculated Selectivity Index SI, MV4-11
2 | C=C(C)[C@@H]1CC[C@]2(COC(=O)CCC(=O)N3CCOCC3)CC[C@]3(C)C(CCC4[C@@]5(C)CC[C@H](O)C(C)(C)C5CC[C@]43C)C12 (some centres unmarked) [2b] | 6.4

System: PC-3 cells
Assay: Induction of apoptosis, Annexin V/PI staining, PC-3
Format: cell-based, human
Conditions: about 1.5 × IC50, 72 h
Description: Apoptosis is one of a cell’s natural mechanisms for programmed cell death. It plays a crucial role in homeostasis by eliminating the unwanted or unnecessary cells. One of the most important functions of apoptosis is prevention of cancer. However, cancer cells often lose the ability to enter the path of apoptosis, which allows them to survive longer and grow in an uncontrolled manner. Regardless of that, apoptosis still remains the most important molecular mechanism to combat cancer cells; therefore, research is conducted to obtain agents with the ability to selectively induce apoptosis in cancer cell lines.
The MV4-11, A549 and PC-3 cells were seeded on 24-well plates (Sarstedt, Germany) for a final volume of 1.5 mL. […] After incubation, the cells were collected and 2 × 10^5 of cells were washed twice with PBS. […] Results were analyzed using Flowing software 2.5.1. […]

Row | Compound | Induction of apoptosis (AnV/PI), PC-3, 72 h
3 | C=C(C)[C@@H]1CC[C@]2(COC(=O)CCC(=O)N3CCOCC3)CC[C@]3(C)C(CCC4[C@@]5(C)CC[C@H](O)C(C)(C)C5CC[C@]43C)C12 (some centres unmarked) [2b] | shifting the ratio of the living cell population towards apoptotic and necrotic ones

System: caspase-3/7
Assay: Caspase-3/7 activity (AC-DEVD-AMC substrate) in A549 cells
Format: cell-based, human
Parameters: key: +: plus mark represents statistically important elevated activity of caspase 3/7 compared to control
Conditions: 1.5 × IC50, 24 h; several-fold lower at 72 h
Description: (§1) Caspase-3 and caspase-7 are cysteine-aspartic acid proteases that can directly execute apoptosis […] sequential activation of caspase-8 or caspase-9. Activation of these enzymes leads to apoptotic cell death; thus, measuring their activity is a good method to determine the pro-apoptotic potential of tested compounds. One of the mechanisms of betulin’s antiproliferative activity is activation of these enzymes; therefore, to further examine the mechanism of action of tested derivatives, we decided to determine their levels.
(§2) The MV4-11, A549 and PC-3 cells were seeded on 48-well plates for a final volume of 1 mL. […] After incubation, the cells were collected and centrifuged (5 min., 4 °C, 250× g). Cells were suspended in 50 µL of ice-cold lysis buffer (50 mM HEPES, 10% (w/v) sucrose, 150 mM NaCl, 2 mM EDTA and 1% (v/v) Triton X-100, pH 7.3, HIIET, Poland) and incubated 30 min. at […]. After the incubation, 40 µL of each sample was transferred to a white, 96-well plate (Corning, CA, USA) containing 160 µL of the reaction buffer (20 mM HEPES, 10 % sucrose, 100 mM NaCl, 1 mM EDTA, 10 mM DTT, 0.02 % Trition X-100, pH 7.3) (HIIET, Wroclaw, Poland) with 9 µM AC-DEVD-AMC (Cayman Chemical) fluorogenic substrate (λex = 360 nm, λem = 460 nm). The fluorescence increase correlated with the caspase-3/7 level was continuously recorded at 37 °C for 120 min using a Biotek Synergy H4 (Biokom, Warsaw, Poland). Compounds were tested in duplicates in a single experiment and each experiment was repeated at least three times independently. Results were normalized to the number of cells in each well and are reported as mean relative caspase-3/7 activity compared to the untreated control sample ± SD.

Row | Compound | caspase 3/7 activity, A549
4 | C=C(C)[C@@H]1CC[C@]2(COC(=O)CCC(=O)N3CCOCC3)CC[C@]3(C)C(CCC4[C@@]5(C)CC[C@H](O)C(C)(C)C5CC[C@]43C)C12 (some centres unmarked) [2b] | hugely elevated caspase 3/7 activity

Same assay, conditions: +/− summary vs control

Row | Compound | caspase 3/7 activity, A549
5 | C=C(C)[C@@H]1CC[C@]2(COC(=O)CCC(=O)N3CCOCC3)CC[C@]3(C)C(CCC4[C@@]5(C)CC[C@H](O)C(C)(C)C5CC[C@]43C)C12 (some centres unmarked) [2b] | +

System: caspase-3/7
Assay: Caspase-3/7 activity (AC-DEVD-AMC substrate) in PC-3 cells
Format: cell-based, human
Parameters: key to Caspase 3/7 Activity, PC-3: +: plus mark represents statistically important elevated activity of caspase 3/7 compared to control
Conditions: 1.5 × IC50, 24 and 72 h
Description: as §1, §2

Row | Compound | caspase-3/7 activity, PC-3
6 | C=C(C)[C@@H]1CC[C@]2(COC(=O)CCC(=O)N3CCOCC3)CC[C@]3(C)C(CCC4[C@@]5(C)CC[C@H](O)C(C)(C)C5CC[C@]43C)C12 (some centres unmarked) [2b] | very high level of caspase-3/7 after 24 and 72 h

Same assay, conditions: +/− summary vs control

Row | Compound | Caspase 3/7 Activity, PC-3
7 | C=C(C)[C@@H]1CC[C@]2(COC(=O)CCC(=O)N3CCOCC3)CC[C@]3(C)C(CCC4[C@@]5(C)CC[C@H](O)C(C)(C)C5CC[C@]43C)C12 (some centres unmarked) [2b] | +

System: not listed separately
Assay: in vitro
Conditions: mouse
Description: (§3) The in vitro antiproliferative activity tests have been conducted against four human cancer cell lines: MV4-11 biphenotypic B myelomonocytic leukemia cell line, A549 lung carcinoma cell line, MCF-7 breast carcinoma cell line, PC-3 prostate carcinoma cell line and one normal BALB/3T3 mouse fibroblast cell line. […] All tested compounds were dissolved in DMSO and diluted with a culture medium to a desired concentration. […] Cell viability, after 72 h incubation of the cells with tested compounds, was determined using tetrazolinum dye MTT (for MV4-11 cells) or sulforhodamine B (SRB test, for MCF-7, A549, PC-3, BALB/3T3 cells) colorimetric assays.
(§4) Human biphenotypic B myelomonocytic leukemia MV4-11, murine normal fibroblast BALB/3T3 cells were obtained from the American Type Culture Collection (USA); and human lung carcinoma A549, human breast cancer MCF-7 and human prostate adenocarcinoma PC-3 were obtained from the European Collection of Authenticated Cell Cultures (UK).
(§5) MV4-11 and PC-3 cells were cultured in RPMI 1640 medium (HIIET PAS, Poland) with 1.0 mM sodium pyruvate (only MV4-11) and 10% fetal bovine serum (FBS) (all from Merck, Darmstadt, Germany). A549 cells were cultured in RPMI 1640 + Opti-MEM (1:1) ((HIIET PAS, Poland and Gibco, UK) supplemented with 5% fetal bovine serum (Merck, Darmstadt, Germany). The MCF-7 cells were cultured in Eagle medium (HIIET PAS, Poland) supplemented with 8 mg/mL of insulin and 1% of MEM NON-Essential amino acid (all Merck, Darmstadt, Germany). Normal fibroblasts BALB/3T3 cells were cultured in DMEM medium (Gibco, UK) supplemented with 10% fetal bovine serum and 1.0 mM sodium pyruvate (all from Merck, Darmstadt, Germany). All culture media were supplemented with 2 mM L-glutamine (Merck, Darmstadt, Germany), 100 units/ml penicillin, (Polfa Tarchomin S.A., Poland) and 100 µg/mL streptomycin (Merck, Darmstadt, Germany). All cell lines were grown at 37 °C in a 5% CO2 humidified atmosphere.
(§6) The solutions of the tested compounds were prepared by dissolving the substances in DMSO to the desired concentration (25 mM). Then, the tested compounds were diluted in a culture medium to reach the final concentrations. Before addition of the tested compounds (24 h prior), the cells were plated in 96-well plates (Sarstedt, Germany) at a density of 1 × 10^4, 0.75 × 10^4 (MCF-7) or 0.5 × 10^4 (A549) cells per well. The assay was performed after 72 h of exposure to 100, 10, 1 and 0.1 µM concentration of the tested agents. […] The SRB method determined the amount of cellular proteins. The concentration of the colorimetric probe (formazan in MTT or sulforhodamine B in SRB method) was determined by an optical density measurement using a standard microplate reader for 96-well plates. After optical density measurement, using the data of the mean absorbances of control cells (AbCC), the absorbances of cells treated by the tested compound (AbTr) (for each concentration separately) and the absorbance of the cultured medium (AbCM) the % of cell proliferation inhibition was calculated according to the following formula: % inh. cells proliferation=100−AbTr−AbCM/AbCC−AbCM×100
(§7) From the obtained proliferation inhibition values, effect-concentration curves of the compound used were plotted. […] IC50 values were calculated for each experiment separately using the Prolab-3 system based on Cheburator 0.4 software [36] and mean values (±SD) are presented. Each compound in each concentration was tested in triplicate in a single experiment, which was repeated 3–5 times.

Row | Compound | IC50 at 72 h [µM]
8 | C=C(C)[C@@H]1CC[C@]2(COC(=O)CCC(=O)N3CCOCC3)CC[C@]3(C)C(CCC4[C@@]5(C)CC[C@H](O)C(C)(C)C5CC[C@]43C)C12 (some centres unmarked) [2b] | 25

System: not listed separately
Assay: Experimental lipophilicity by RP-TLC
Conditions: RP-TLC, RP-18 F254S, acetone / Tris buffer pH 7.4, extrapolated to zero acetone

Row | Compound | RM0
9 | C=C(C)[C@@H]1CC[C@]2(COC(=O)CCC(=O)N3CCOCC3)CC[C@]3(C)C(CCC4[C@@]5(C)CC[C@H](O)C(C)(C)C5CC[C@]43C)C12 (some centres unmarked) [2b] | 5.024

System: A549 cell line
Assay: Antiproliferative activity, SRB assay, A549 lung carcinoma cells
Conditions: +/− summary, IC50 vs betulin 1

Row | Compound | Antiproliferative Activity, A549
10 | C=C(C)[C@@H]1CC[C@]2(COC(=O)CCC(=O)N3CCOCC3)CC[C@]3(C)C(CCC4[C@@]5(C)CC[C@H](O)C(C)(C)C5CC[C@]43C)C12 (some centres unmarked) [2b] | +

Same assay, conditions: Homo sapiens, A549, 72 h, read-out: Cytotoxicity IC50 against A549 cell line

Row | Compound | IC50 [µM]
11 | C=C(C)[C@@H]1CC[C@]2(COC(=O)CCC(=O)N3CCOCC3)CC[C@]3(C)C(CCC4[C@@]5(C)CC[C@H](O)C(C)(C)C5CC[C@]43C)C12 (some centres unmarked) [2b] | 8.03

Same assay, conditions: IC50 BALB/3T3 / IC50 A549

Row | Compound | Calculated Selectivity Index SI, A549
12 | C=C(C)[C@@H]1CC[C@]2(COC(=O)CCC(=O)N3CCOCC3)CC[C@]3(C)C(CCC4[C@@]5(C)CC[C@H](O)C(C)(C)C5CC[C@]43C)C12 (some centres unmarked) [2b] | 3.1

System: MCF-7 cell line
Assay: Antiproliferative activity, SRB assay, MCF-7 breast carcinoma cells
Conditions: Homo sapiens, MCF7, 72 h, read-out: Cytotoxicity IC50 against MCF-7 cell line

Row | Compound | IC50 [µM]
13 | C=C(C)[C@@H]1CC[C@]2(COC(=O)CCC(=O)N3CCOCC3)CC[C@]3(C)C(CCC4[C@@]5(C)CC[C@H](O)C(C)(C)C5CC[C@]43C)C12 (some centres unmarked) [2b] | 19.3

Same assay, conditions: IC50 BALB/3T3 / IC50 MCF-7

Row | Compound | Calculated Selectivity Index SI, MCF-7
14 | C=C(C)[C@@H]1CC[C@]2(COC(=O)CCC(=O)N3CCOCC3)CC[C@]3(C)C(CCC4[C@@]5(C)CC[C@H](O)C(C)(C)C5CC[C@]43C)C12 (some centres unmarked) [2b] | 1.3

System: PC-3 cell line
Assay: Antiproliferative activity, SRB assay, PC-3 prostate carcinoma cells
Conditions: +/− summary, IC50 vs betulin 1
Description: as §3, §4, §5, §6, §7

Row | Compound | Antiproliferative Activity, PC-3
15 | C=C(C)[C@@H]1CC[C@]2(COC(=O)CCC(=O)N3CCOCC3)CC[C@]3(C)C(CCC4[C@@]5(C)CC[C@H](O)C(C)(C)C5CC[C@]43C)C12 (some centres unmarked) [2b] | +

Same assay, conditions: Homo sapiens, PC-3, 72 h, read-out: Cytotoxicity IC50 against PC-3 cell line

Row | Compound | IC50 [µM]
16 | C=C(C)[C@@H]1CC[C@]2(COC(=O)CCC(=O)N3CCOCC3)CC[C@]3(C)C(CCC4[C@@]5(C)CC[C@H](O)C(C)(C)C5CC[C@]43C)C12 (some centres unmarked) [2b] | 17.9

Same assay, conditions: IC50 BALB/3T3 / IC50 PC-3

Row | Compound | Calculated Selectivity Index SI, PC-3
17 | C=C(C)[C@@H]1CC[C@]2(COC(=O)CCC(=O)N3CCOCC3)CC[C@]3(C)C(CCC4[C@@]5(C)CC[C@H](O)C(C)(C)C5CC[C@]43C)C12 (some centres unmarked) [2b] | 1.4
